# Measurements taken from patent US4317881A (priority 1979, dated 1982).
# Test system: cyclodextrin glycosyltransferase (E.C. 2.4.1.19)
# Assay: not given
# Assay type: biochemical, Micrococcus varians M 849
# Conditions: pH 7
Molecule,Residual activity,Inhibition of the enzyme (in words)
"[Ca+2].[Cl-].[Cl-] [CaCl2, calcium chloride]",100%,–
[Cl-].[Cl-].[Co+2] [CoCl2],88%,–
O=S(=O)([O-])[O-].[Cu+2] [CuSO4],6%,inhibited
O=C(O)CN(CCN(CC(=O)O)CC(=O)O)CC(=O)O [Ethylenediaminetetraacetic acid],2%,inhibited
O=S(=O)([O-])[O-].[Fe+2] [FeSO4],10%,inhibited
[Cl-].[Cl-].[Mg+2] [MgCl2],100%,–
O=S(=O)([O-])[O-].[Mg+2] [MgSO4],100%,–
O=C(O)CI [Monoiodoacetic acid],97%,–
c1cnc2c(c1)ccc1cccnc12 [O-Phenanthroline],100%,–
[Cl-].[Cl-].[Zn+2] [ZnCl2],100%,–
O=C(O)c1cc[c]([Hg][Cl])cc1 [p-Chloromercuribenzoic acid],95%,–
HgCl2,5%,inhibited

# Test system: not listed separately
# Assay: Inactivation of the enzyme by pH and temperature, with and without calcium
# Conditions: 10^-2 M calcium chloride, 15 min treatment (FIG. 6)
row,Molecule,"Rise of the temperature at which the enzyme is still stable, versus absence of the metal ion"
1,"[Ca+2].[Cl-].[Cl-] [CaCl2, calcium chloride]",~5 °C

# Same assay, conditions: 10^-2 M-10^-3 M calcium chloride
row,Molecule,Thermostability of the enzyme on addition of the salt
1,"[Ca+2].[Cl-].[Cl-] [CaCl2, calcium chloride]",enhanced
